This note sets out measurements from US5486508A, “Cyclodextrin composition” (TAKEDA Chemical Industries Ltd., priority 1991, dated 1996).

Data set [1] can be described thus: Solubility of diazepam or clofibrate complex with G2 βCD versus drug alone. An excerpt: The solubility of the complex was compared with that of the drug alone.
A short description of data set [2]: Stability of powders at 40° C. for 2 weeks (residual amount of Compound A by HPLC). It counts as physicochemical. The following applies: powder storage, 336 h. How it is done: The residual amounts of Compound A was determined by HPLC.
For data set [3] the following is noted: water. How it is done:
(§1) The aqueous solution was added to the above ethyl alcohol solution with stirring. The solution thus obtained was lyophilized to obtain a powder.
(§2) After 4 hours, the mixture was filtered through a filter having pore size of 0.22 μm.

For data set [4] the following is noted: water. How it is done: as §1, §2
The source holds these as a separate data set.

≈ marks a conversion by molar mass, not a printed value. Like-named read-outs stand apart in the source and are kept apart here.

For orientation: solubility means the concentration that dissolves in the medium under given conditions. A high value points to a readily soluble substance. Consider `CCOC(=O)C(C)(C)Oc1ccc(Cl)cc1` [Clofibrate, clofibrate], for which the concentration in solution in data set [1] (solubility) was 36 µg/mL (≈ 148 µM).

In the case of `CO[C@@H]1[C@H](OC(=O)NC(=O)CCl)CC[C@]2(CO2)[C@H]1[C@@]1(C)O[C@@H]1CC=C(C)C` [Compound A, 6-O-(N-chloroacetylcarbamoyl)fumagillol], the “Stability, Residual rate” value in data set [2] is 81.4%. In addition, the “Comparison of solubilities (solubility concentration of Compound A)” value in data set [3] and in data set [4] was 1700 µg/mL in each case.
